Measurements reported in article PMC6222789, “CF3-Substituted Mollugin 2-(4-Morpholinyl)-ethyl ester as a Potential Anti-inflammatory Agent with Improved Aqueous Solubility and Metabolic Stability” (Molecules : A Journal of Synthetic Chemistry and Natural …, 2018).

Tests used:
[1] = test system: TNF-α-induced adhesion of U937 monocytic cells to HT-29 cells; assay: TNF-α-induced colonic epithelial cell adhesion assay; assay type: cell-based, human; conditions: Homo sapiens, Epithelial cell, 10 uM; U937 adhesion to HT-29 cells, TNF-α-induced
Protocol: Synthesized mollugin derivatives were subjected to the colonic epithelial cell adhesion assay, which mimics the initial stage of colon inflammation. The inhibition of TNF-α-induced or IL-6-induced adhesion of U937 monocytic cells to HT-29 cells in 10 μM solution of synthesized molecules was measured, and the results are summarized in Table 1 and Table 2. Mesalazine (2), a commercially available medication for the treatment of IBD, and mollugin were chosen as assay positive controls.
HT-29 human colonic epithelial cells and U937 human pre-monocytic cells were grown in RPMI 1640 medium supplemented with 10% FBS, 100 IU/mL penicillin, and 100 µg/mL streptomycin in a humidified incubator under 5% CO2/95% air.
U937 monocytic cell adhesion to colonic epithelial cells was evaluated using human U937 pre-monocytic cells, which were prelabeled with 2′,7′-bis(2-carboxyethyl)-5(6)-carboxyfluorescein acetoxymethyl ester (BCECF/AM, 10 μg/mL) for 1 h at 37 °C. HT-29 cells cultured in 24-well plates were pretreated with test compound, 5-ASA, or tofacitinib for 1 h prior to incubation with TNF-α (10 ng/mL) and IL-6 (5 ng/mL) for an additional 3 h. Cells were then co-incubated with BCECF/AM-prelabeled U937 cells (1 × 10^6 cells/well) for 30 min at 37 °C. Non-adhering U937 cells were removed, and the HT-29 cells and adherent U937 cells were washed twice with PBS. Images were captured and processed with a Nikon ECLIPSE TE2000-U microscope and NIS-Elements F software (Nikon, Tokyo, Japan). For quantitative analysis, other sets of cells were lysed in 0.1% Triton X-100 in Tris (0.1 M), and the fluorescence was measured using a fluorescence-detecting microplate reader (Promega , Madison, WI, USA) at […]. Experiments were performed in triplicate and repeated at least three times independently.

[2] = Metabolic stability, human liver microsomes; assay type: in vitro ADME; conditions: 1 μM
Protocol: (§1) Pooled human liver microsomes (150 donor) and dog, rat, mouse liver microsomes were obtained from BD Gentest Co. (Woburn, MA, USA). NADPH regeneration system was obtained from Promega. S-Mephenytoin, 4-hydroxymephenytoin, and 1’-hydroxymidazolam were purchased from Ultrafine Chemical Co. (Manchester, UK). All other chemicals and solvents were of the highest grade available. The metabolic stability assay was performed by incubation of human or selected animal liver microsomes (most often dog, rat and mouse), at 37 °C with a test compound at a final concentration of 1 μM, in the presence of 0.5 mg/mL microsomal protein and NADPH regeneration system, in a total volume of 100 μL of 100 mM phosphate buffer, pH 7.4. The incubation was started by the addition of NADPH regeneration system and terminated with 40 μL of ice-cold acetonitrile at 0 and 30 min. Precipitated proteins were removed by centrifugation at 10,000× g for 5 min at 4 °C. Aliquots of the supernatant were injected onto an LC-MS/MS system. Incubations terminated prior to the addition of NADPH regeneration system (time point 0 min) were used as standards, defined as 100%. Percent of the parent compound remaining was calculated by comparing peak area.

[3] = Metabolic stability, mouse liver microsomes; assay type: in vitro ADME; conditions: 30 min, 1 μM
Protocol: as §1

CYP1A2 = molecular target: T1, CYP1A2 (Homo sapiens, UniProt P05177); assay: CYP inhibition assay, CYP1A2; assay type: in vitro ADME; conditions: for CYP Inhibition (% of Control) 1A2: 10 μM, CYP activity in presence of inhibitor as % of control, human liver microsomes
T1 construct: from tissue; host or cells: human liver microsomes
T1 sequence (P05177 1-516): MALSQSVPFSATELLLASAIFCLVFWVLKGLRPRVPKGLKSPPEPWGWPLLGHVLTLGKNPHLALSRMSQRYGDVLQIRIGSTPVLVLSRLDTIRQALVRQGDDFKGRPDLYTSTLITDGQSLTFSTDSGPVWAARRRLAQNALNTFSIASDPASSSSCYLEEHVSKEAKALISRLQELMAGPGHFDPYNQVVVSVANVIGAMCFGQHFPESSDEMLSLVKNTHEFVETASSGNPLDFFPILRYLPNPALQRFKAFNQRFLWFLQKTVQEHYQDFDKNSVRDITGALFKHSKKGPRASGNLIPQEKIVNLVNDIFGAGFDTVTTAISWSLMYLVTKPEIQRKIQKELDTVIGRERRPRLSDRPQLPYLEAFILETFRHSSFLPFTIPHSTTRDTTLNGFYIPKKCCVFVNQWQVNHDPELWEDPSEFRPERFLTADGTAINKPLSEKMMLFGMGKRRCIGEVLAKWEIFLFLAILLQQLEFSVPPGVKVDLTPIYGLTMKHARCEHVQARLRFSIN
Protocol: (§2) All incubations were performed in duplicate, and the mean values were used for analysis. The assays of phenacetin O-deethylase, tolbutamide 4-hydroxylase, S-mephenytoin 4-hydroxylase, dextromethorphan O-demethylase and midazolam 1′-hydroxylase activities were determined as probe activities for CYP1A2, CYP2C9, CYP2C19, CYP2D6 and CYP3A, respectively, using cocktail incubation and tandem mass spectrometry. Briefly, incubation reaction was performed with 0.25 mg/mL human liver microsomes in a final incubation volume of 100 μL. The incubation medium contained 100 mM phosphate buffer (pH 7.4) with probe substrates. The incubation mixture containing various inhibitors (10 μM) was pre-incubated for 5 min. After pre-incubation, an NADPH regenerating system was added. After incubation at 37 °C for 15 min, the reaction was stopped by placing the incubation tubes on ice and adding 40 μL of ice-cold acetonitrile. The incubation mixtures were then centrifuged at 10,000× g for 5 min at 4 °C. Aliquots of the supernatant were injected onto an LC-MS/MS system. The CYP-mediated activities in the presence of inhibitors were expressed as percentages of the corresponding control values.

CYP2C9 = molecular target: T2, CYP2C9 (Homo sapiens, UniProt P11712); assay: CYP inhibition assay, CYP2C9; assay type: in vitro ADME; conditions: for CYP Inhibition (% of Control) 2C9: 10 μM, CYP activity in presence of inhibitor as % of control, human liver microsomes
T2 construct: from tissue; host or cells: human liver microsomes
T2 sequence (P11712 whole entry): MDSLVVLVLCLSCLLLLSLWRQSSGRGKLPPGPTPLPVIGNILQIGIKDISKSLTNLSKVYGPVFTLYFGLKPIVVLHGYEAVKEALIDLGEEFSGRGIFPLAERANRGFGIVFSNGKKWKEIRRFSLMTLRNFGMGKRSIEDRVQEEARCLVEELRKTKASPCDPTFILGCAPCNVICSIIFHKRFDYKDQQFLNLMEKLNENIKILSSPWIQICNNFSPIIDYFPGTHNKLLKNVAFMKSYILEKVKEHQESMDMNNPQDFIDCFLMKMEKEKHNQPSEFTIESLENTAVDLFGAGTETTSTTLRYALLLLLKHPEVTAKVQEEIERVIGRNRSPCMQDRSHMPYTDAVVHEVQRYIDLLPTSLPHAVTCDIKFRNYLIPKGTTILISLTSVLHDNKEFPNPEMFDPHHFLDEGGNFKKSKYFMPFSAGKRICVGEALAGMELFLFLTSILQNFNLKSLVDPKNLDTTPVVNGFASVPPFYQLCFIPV
Protocol: as §2

CYP2D6 = molecular target: T3, CYP2D6 (Homo sapiens, UniProt P10635); assay: CYP inhibition assay, CYP2D6; assay type: in vitro ADME; conditions: for CYP Inhibition (% of Control) 2D6: 10 μM, CYP activity in presence of inhibitor as % of control, human liver microsomes
T3 construct: from tissue; host or cells: human liver microsomes
T3 sequence (P10635 whole entry): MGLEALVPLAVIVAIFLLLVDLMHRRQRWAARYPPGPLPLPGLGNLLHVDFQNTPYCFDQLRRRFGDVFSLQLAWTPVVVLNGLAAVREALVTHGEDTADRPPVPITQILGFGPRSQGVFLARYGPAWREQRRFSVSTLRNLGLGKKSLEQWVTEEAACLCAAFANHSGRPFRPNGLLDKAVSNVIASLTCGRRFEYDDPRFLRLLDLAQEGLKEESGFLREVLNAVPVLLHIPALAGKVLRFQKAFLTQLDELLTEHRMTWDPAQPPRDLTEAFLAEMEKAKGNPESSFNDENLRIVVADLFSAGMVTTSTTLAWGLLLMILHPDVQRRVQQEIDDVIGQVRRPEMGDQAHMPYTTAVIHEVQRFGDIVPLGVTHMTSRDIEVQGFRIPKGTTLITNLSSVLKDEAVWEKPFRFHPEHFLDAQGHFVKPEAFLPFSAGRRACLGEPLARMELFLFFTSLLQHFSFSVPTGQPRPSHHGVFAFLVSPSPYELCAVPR
Protocol: as §2

cell viability = assay: MTT cell viability assay; assay type: cell-based; conditions: 10 μM concentration
[4] = Determination of water solubility at 10 mM; assay type: physicochemical; conditions: aqueous buffer, thermodynamic from solid, sodium phosphate buffer 0.1 M, pH 7.4, room temperature
Protocol: Water solubility (>10 mM) was determined using the following procedure at room temperature. The test compound was added to a vial containing sodium phosphate buffer, 0.1 M, pH 7.4 (1 mL) to make a 10 mM mixture, and the mixture was equilibrated during 10 min of sonication and then visually checked immediately and after 24 h for any undissolved parts or precipitation of the sample. If no precipitation was shown after 24 h, the aqueous solution was filtered (Syringe filter; PTFE; pore size: 0.45 μm; 25 mm DI) and subjected to LC-MS to confirm the reagent.

Compound: CC1(C)C=Cc2c(C(=O)OCCN3CCOCC3)c(O)c3ccccc3c2O1 [6d, 2-Morpholinoethyl 6-hydroxy-2,2-dimethyl-2H-benzo[h]chromene-5-carboxylate]
- inhibition at 10 µM [1]: 46.3 ± 6.2%
- Metabolic Stability (% Remain, 30 min) Human [2]: 83 % Remain
- Metabolic Stability (% Remain, 30 min) Mouse [3]: 10 % Remain
- CYP Inhibition (% of Control) 1A2 (CYP1A2): 58 % of Control
- CYP Inhibition (% of Control) 2C9 (CYP2C9): 99 % of Control
- CYP Inhibition (% of Control) 2D6 (CYP2D6): 75 % of Control
- effect on cell viability (MTT) (cell viability): neither 6d nor 15c affects the cell viability

Compound: CC1(C)C=Cc2c(C(=O)OCCN3CCOCC3)c(O)c3cc(C(F)(F)F)ccc3c2O1 [15c, 2-Morpholinoethyl 6-hydroxy-2,2-dimethyl-8-(trifluoromethyl)-2H-benzo[h]chromene-5-carboxylate]
- inhibition at 10 µM [1]: 46 ± 7.6%
- Metabolic Stability (% Remain, 30 min) Human [2]: 84 % Remain
- Metabolic Stability (% Remain, 30 min) Mouse [3]: 45 % Remain
- CYP Inhibition (% of Control) 1A2 (CYP1A2): 57 % of Control
- inhibition at 15 min, 10 μM (CYP1A2; human, liver microsomes, pH 7.4, probe phenacetin (O-deethylation), at 10 μM drug concentration, read-out: % inhibition of CYP 1A2): < 50%
- CYP Inhibition (% of Control) 2C9 (CYP2C9): 97 % of Control
- inhibition at 15 min, 10 μM (CYP2C9; human, liver microsomes, pH 7.4, probe tolbutamide (4-hydroxylation), at 10 μM drug concentration, read-out: % inhibition of CYP 2C9): < 50%
- CYP Inhibition (% of Control) 2D6 (CYP2D6): 92 % of Control
- inhibition at 15 min, 10 μM (CYP2D6; human, liver microsomes, pH 7.4, probe dextromethorphan (O-demethylation), at 10 μM drug concentration, read-out: % inhibition of CYP 2D6): < 50%
- solubility at 24 h [4]: > 10 mM
- effect on cell viability (MTT) (cell viability): neither 6d nor 15c affects the cell viability
